Data published in patent US20070287844A1, “Novel Crystal of N-[3-(Formylamino)-4-Oxo-6-Phenoxy-4h-Chromene-7-Yl] Methanesulfonamide” (Toyama Chemical Co., Ltd., priority 2003, published 2007).

Assay: Influence of humidity: water content of crystals after standing at controlled relative humidity
Assay type: physicochemical
Settings: 7 days, 25° C.; for Change of water content with rising relative humidity: 22 to 93% RH
Method: Test Example 1 Influence of Humidity After being allowed to stand the compounds of the present invention (T-614β, T-614γ and T-614 hydrate) and the compound disclosed as Example 5 in Japanese Patent Laid-Open No. 5-97840 (T-614α) under the relative humidity 22, 51, 75 and 93% RH for 7 days at 25° C., the water content of each crystal was measured.

Row | Change of water content with rising relative humidity | Stability under a high humidity condition | Water content (%) (relative humidity 22% RH) | Water content (%) (relative humidity 51% RH) | Water content (%) (relative humidity 75% RH) | Water content (%) (relative humidity 93% RH) | Structure (SMILES)
1 | almost kept unchanged | stable under a high humidity condition | 0.54 | 0.25 | 0.21 | 0.18 | CS(=O)(=O)Nc1cc2occ(NC=O)c(=O)c2cc1Oc1ccccc1 [T-614β, N-[3-(formylamino)-4-oxo-6-phenoxy-4H-chromen-7-yl]methanesulfonamide]
2 | almost kept unchanged | stable under a high humidity condition | 4.09 | 4.15 | 4.08 | 4.03 | CS(=O)(=O)Nc1cc2occ(NC=O)c(=O)c2cc1Oc1ccccc1 [T-614 hydrate, N-[3-(formylamino)-4-oxo-6-phenoxy-4H-chromen-7-yl]methanesulfonamide]
3 | almost kept unchanged | stable under a high humidity condition | 0.28 | 0.33 | 0.52 | 0.65 | CS(=O)(=O)Nc1cc2occ(NC=O)c(=O)c2cc1Oc1ccccc1 [T-614γ, N-[3-(formylamino)-4-oxo-6-phenoxy-4H-chromen-7-yl]methanesulfonamide]

Row | Structure (SMILES) | Change of water content with rising relative humidity | Stability under a high humidity condition | Water content (%) (relative humidity 22% RH) | Water content (%) (relative humidity 51% RH) | Water content (%) (relative humidity 75% RH) | Water content (%) (relative humidity 93% RH)
4 | CS(=O)(=O)Nc1cc2occ(NC=O)c(=O)c2cc1Oc1ccccc1 [T-614α, N-[3-(formylamino)-4-oxo-6-phenoxy-4H -chromen-7-yl]methanesulfonamide, reference compound] | increased with the rising of relative humidity | – | 0.30 | 1.29 | 2.88 | 3.62
